Data set [1] has as its system P-gp, MRP1 and BCRP transporters. Nature of the data set: Selectivity for ABC transporters, determined from % of reversion (Tables 1 and 2). The data set is classed as cell-based, human. The conditions noted are these: determined from % of reversion in Table 1 (>80% strongly, 79-50% moderately selective). The essentials: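 Selectivity assigned from % reversion of resistance mediated by P-gp, MRP1 and BCRP. Over 80% reversion counts as strongly selective, 79-50% as moderately selective. Compounds are classed as mono-, dual- or multi-selective.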

The nature of another data set: in vitro. The conditions noted are these: mouse.
The target of data set [2] is T1, MRP1 (Homo sapiens, UniProt P33527). As to the kind of experiment: cell-based.
T1 sequence (P33527 whole entry): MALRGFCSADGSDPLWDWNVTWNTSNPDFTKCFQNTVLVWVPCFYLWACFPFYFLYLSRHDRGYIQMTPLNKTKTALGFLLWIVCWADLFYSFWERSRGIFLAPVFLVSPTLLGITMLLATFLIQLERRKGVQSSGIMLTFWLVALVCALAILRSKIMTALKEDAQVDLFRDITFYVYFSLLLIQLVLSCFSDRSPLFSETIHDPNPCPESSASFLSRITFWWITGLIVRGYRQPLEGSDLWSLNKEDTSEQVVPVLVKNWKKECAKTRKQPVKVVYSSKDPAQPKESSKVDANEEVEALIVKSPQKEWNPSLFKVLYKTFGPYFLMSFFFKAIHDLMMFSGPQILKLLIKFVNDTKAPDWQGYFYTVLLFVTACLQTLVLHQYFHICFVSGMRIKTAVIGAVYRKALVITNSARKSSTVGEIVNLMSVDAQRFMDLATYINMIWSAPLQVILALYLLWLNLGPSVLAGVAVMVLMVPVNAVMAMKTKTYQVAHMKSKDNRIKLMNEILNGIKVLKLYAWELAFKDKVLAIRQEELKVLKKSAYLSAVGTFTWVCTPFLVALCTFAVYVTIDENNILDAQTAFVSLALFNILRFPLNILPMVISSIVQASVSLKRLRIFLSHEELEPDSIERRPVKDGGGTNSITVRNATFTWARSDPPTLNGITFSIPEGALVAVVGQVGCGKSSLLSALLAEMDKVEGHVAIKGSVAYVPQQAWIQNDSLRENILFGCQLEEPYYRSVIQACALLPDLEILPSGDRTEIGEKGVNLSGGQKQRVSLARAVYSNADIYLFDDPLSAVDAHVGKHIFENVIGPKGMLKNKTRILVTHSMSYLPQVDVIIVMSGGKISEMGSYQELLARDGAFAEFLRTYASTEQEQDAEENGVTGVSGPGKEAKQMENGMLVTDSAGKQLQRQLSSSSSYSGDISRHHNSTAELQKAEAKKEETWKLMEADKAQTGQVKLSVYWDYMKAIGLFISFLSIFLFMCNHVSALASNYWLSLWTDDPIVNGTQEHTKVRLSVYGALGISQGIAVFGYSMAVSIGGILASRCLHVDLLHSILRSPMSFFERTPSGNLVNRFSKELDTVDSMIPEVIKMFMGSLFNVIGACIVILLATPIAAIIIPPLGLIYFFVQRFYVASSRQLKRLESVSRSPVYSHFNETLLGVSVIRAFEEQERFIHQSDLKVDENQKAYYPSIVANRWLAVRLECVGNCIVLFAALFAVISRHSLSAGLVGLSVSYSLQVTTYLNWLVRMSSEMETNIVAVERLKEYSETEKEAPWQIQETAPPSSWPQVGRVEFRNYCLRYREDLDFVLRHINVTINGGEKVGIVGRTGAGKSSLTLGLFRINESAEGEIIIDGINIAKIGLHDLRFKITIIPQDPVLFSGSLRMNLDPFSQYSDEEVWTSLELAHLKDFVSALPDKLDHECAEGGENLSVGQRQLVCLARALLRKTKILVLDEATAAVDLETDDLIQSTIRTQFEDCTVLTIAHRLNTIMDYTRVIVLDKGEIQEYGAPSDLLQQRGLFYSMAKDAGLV
In data set [3] the target is T1, MRP1. As to the kind of experiment: Reversal of MRP1-mediated vincristine resistance in 2008/MRP1 cells (cell proliferation assay). As to conditions: (IC50 towards L929 or Raw264.7)/(EC50 for reversing drug resistance).
In data set [4] the target is T2, BCRP (Homo sapiens, UniProt Q9UNQ0).
T2 sequence (Q9UNQ0 1-655): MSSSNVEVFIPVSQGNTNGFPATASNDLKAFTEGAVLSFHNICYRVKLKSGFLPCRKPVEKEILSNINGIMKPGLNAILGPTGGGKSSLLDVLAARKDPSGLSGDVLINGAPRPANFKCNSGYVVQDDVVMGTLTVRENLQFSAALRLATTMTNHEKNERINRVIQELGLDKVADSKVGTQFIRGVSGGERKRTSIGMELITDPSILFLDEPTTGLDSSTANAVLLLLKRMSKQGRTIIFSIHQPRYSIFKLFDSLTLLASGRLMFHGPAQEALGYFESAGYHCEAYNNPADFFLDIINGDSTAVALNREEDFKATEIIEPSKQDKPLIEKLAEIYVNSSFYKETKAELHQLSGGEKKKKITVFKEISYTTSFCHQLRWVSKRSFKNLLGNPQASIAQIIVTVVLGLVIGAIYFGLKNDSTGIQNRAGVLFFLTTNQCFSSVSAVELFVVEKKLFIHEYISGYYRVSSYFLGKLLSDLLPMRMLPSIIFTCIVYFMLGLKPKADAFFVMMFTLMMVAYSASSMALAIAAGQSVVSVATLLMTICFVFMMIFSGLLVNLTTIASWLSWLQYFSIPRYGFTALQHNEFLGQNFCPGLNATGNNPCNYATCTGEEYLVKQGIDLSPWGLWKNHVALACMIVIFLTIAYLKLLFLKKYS
As to the kind of experiment: cell-based.

The target in data set [5] is T1, MRP1. As to the kind of experiment: Reversal of MRP1-mediated DOX resistance in 2008/MRP1 cells (cell proliferation assay). As to conditions: for DOX resistance of 2008/MRP1 Therapeutic index: (IC50 towards L929 or Raw264.7)/(EC50 for reversing drug resistance).
The target of data set [6] is T1, MRP1. Nature of the data set: cell-based. This is another data set of the same source.
Data set [7] has as its target T2, BCRP. Nature of the data set: Reversal of BCRP-mediated topotecan resistance in MCF7-MX100 cells (cell proliferation assay). As to conditions: for Topotecan resistance of MCF7-MX100 Therapeutic index: (IC50 towards L929 or Raw264.7)/(EC50 for reversing drug resistance).

Structures are written as SMILES. Where two headings read alike, the source gives them in different places.

For orientation: IC50 means the concentration that inhibits the measured activity by half. A higher IC50 goes with a need for much substance. Broadly, the EC50 is the midpoint of the concentration-response curve.

In the case of `O=c1cc(-c2ccc(OCCOCCn3cc(CCCCOc4ccc5c(=O)cc(-c6ccccc6)oc5c4)nn3)cc2)oc2ccccc12` [Ac12Az1, 7-(4-(1-(2-(2-(4-(4-Oxo-4H-chromen-2-yl)phenoxy)ethoxy)ethyl)-1H-1,2,3-triazol-4-yl)butoxy)-2-phenyl-4H-chromen-4-one], in data set [1], the “Selectivity for ABC transporters (P-gp, MRP1, BCRP)” value (from here on “Selectivity … (P-gp, MRP1, BCRP)”) is “MRP1- and BCRP-dual selectivity”. This compound registered an IC50 at 5 days in “in vitro” above 100 µM. Moreover, it took 0.084 ± 0.011 µM to reach a half-maximal effect at MRP1 [2] (EC50). Moreover, the “Vincristine resistance of 2008/MRP1 Therapeutic index” value on MRP1 [3] is above 1190.5.
Regarding `O=c1cc(-c2ccccc2)oc2cc(OCCCCc3cn(CCOCCOCCOc4ccc5c(=O)cc(-c6ccccc6)oc5c4)nn3)ccc12` [Ac12Az12, 7-(2-(2-(2-(4-(4-((4-Oxo-2-phenyl-4H-chromen-7-yl)oxy)butyl)-1H-1,2,3-triazol-1-yl)ethoxy)ethoxy)ethoxy)-2-phenyl-4H-chromen-4-one], the “Selectivity … (P-gp, MRP1, BCRP)” value in data set [1] is “MRP1- and BCRP-dual selectivity”. The IC50 at 5 days in the data set “in vitro” is above 100 µM. Moreover, the results for the half-maximal effective concentration (EC50) on MRP1 [2] and on BCRP [4] were 0.168 µM and 0.034 µM, respectively. Also, the “DOX resistance of 2008/MRP1 Therapeutic index” value on MRP1 [5] is above 740.7. For the same compound, at MRP1 [3], the “Vincristine resistance of 2008/MRP1 Therapeutic index” value is on record as above 595.2.
`O=c1cc(-c2ccc(OCCOCCn3cc(CCCOc4ccc5c(=O)cc(-c6ccccc6)oc5c4)nn3)cc2)oc2ccccc12` [Ac2Az1, 7-(3-(1-(2-(2-(4-(4-Oxo-4H-chromen-2-yl)phenoxy)ethoxy)ethyl)-1H-1,2,3-triazol-4-yl)propoxy)-2-phenyl-4H-chromen-4-one] displayed an IC50 at 5 days in “in vitro” above 100 µM. It took 0.145 ± 0.025 µM to reach a half-maximal effect on MRP1 [6] (EC50).
Take `O=c1cc(-c2ccccc2)oc2cc(OCCCCc3cn(CCOCCOc4ccc(-c5cc(=O)c6cc(F)ccc6o5)cc4)nn3)ccc12` [Ac12Az7, 6-Fluoro-2-(4-(2-(2-(4-(4-((4-oxo-2-phenyl-4H-chromen-7-yl)oxy)butyl)-1H-1,2,3-triazol-1-yl)ethoxy)ethoxy)phenyl)-4H-chromen-4-one]: in data set [1], the “Selectivity … (P-gp, MRP1, BCRP)” value is “MRP1- and BCRP-dual selectivity”. This compound returned an IC50 at 5 days in the data set “in vitro” above 100 µM. Besides, a half-maximal response at MRP1 [2] (EC50) required 0.0933 ± 0.0205 µM. In addition, on MRP1 [5], the “DOX resistance of 2008/MRP1 Therapeutic index” value is above 580.4. Moreover, at MRP1 [3], the “Vincristine resistance of 2008/MRP1 Therapeutic index” value is reported as above 1071.8.
On to `O=c1cc(-c2ccccc2)oc2cc(OCCN(Cc3ccccc3)Cc3cn(CCOc4ccc5c(=O)cc(-c6ccccc6)oc5c4)nn3)ccc12` [Ac16Az13, 7-(2-(Benzyl((1-(2-((4-oxo-2-phenyl-4H-chromen-7-yl)oxy)ethyl)-1H-1,2,3-triazol-4-yl)methyl)amino)ethoxy)-2-phenyl-4H-chromen-4-one], for which, in the data set “in vitro”, the 50% inhibitory concentration (IC50) at 5 days was above 100 µM. In addition, the response at MRP1 [6] was half-maximal at 0.59 µM (EC50). Moreover, the “DOX resistance of 2008/MRP1 Therapeutic index” value at MRP1 [5] is above 169.5.
In the case of `O=c1cc(-c2ccc(OCCOCCOCCn3cc(CCCCOc4ccc5c(=O)cc(-c6ccccc6)oc5c4)nn3)cc2)oc2ccccc12` [Ac12Az2, 7-(4-(1-(2-(2-(2-(4-(4-Oxo-4H-chromen-2-yl)phenoxy)ethoxy)ethoxy)ethyl)-1H-1,2,3-triazol-4-yl)butoxy)-2-phenyl-4H-chromen-4-one], the “Selectivity … (P-gp, MRP1, BCRP)” value in data set [1] was “MRP1- and BCRP-dual selectivity”. In addition, the IC50 at 5 days in “in vitro” is above 50 µM. For the same compound, the “DOX resistance of 2008/MRP1 Therapeutic index” value at MRP1 [5] is above 298.5. The “Vincristine resistance of 2008/MRP1 Therapeutic index” value on MRP1 [3] is above 377.9.
Turning to `COC(=O)c1cccc(COc2c(-c3ccc(OCCOCCn4cc(COCCOc5ccc6c(=O)cc(-c7ccccc7)oc6c5)nn4)cc3)oc3ccccc3c2=O)c1` [Ac13Az8, Methyl 3-(((4-oxo-2-(4-(2-(2-(4-((2-((4-oxo-2-phenyl-4H-chromen-7-yl)oxy)ethoxy)methyl)-1H-1,2,3-triazol-1-yl)ethoxy)ethoxy)phenyl)-4H-chromen-3-yl)oxy)methyl)benzoate], in data set [1], the “Selectivity … (P-gp, MRP1, BCRP)” value was “MRP1- and BCRP-dual selectivity”. For the same compound, in the data set “in vitro”, the IC50 at 5 days is above 100 µM. This compound gave an EC50 on BCRP [4] of at most 0.01 µM. The “% of reversion of sensitivity of 2008/MRP1 towards DOX” value at MRP1 [5] (triazole dimers at 1.0 μM) was “about 55.9%”. For the same compound, the “Topotecan resistance of MCF7-MX100 Therapeutic index” value on BCRP [7] is given as above 16666.7. Further, the “% of reversion of sensitivity of MCF7-MX100 towards topotecan” value at BCRP [7] (triazole dimers at 1.0 μM) is “about 80.0%”.
On to `O=c1cc(-c2ccccc2)oc2cc(OCCCCc3cn(CCOCCOc4ccc5c(=O)cc(-c6ccccc6)oc5c4)nn3)ccc12` [Ac12Az11, 7-(2-(2-(4-(4-((4-Oxo-2-phenyl-4H-chromen-7-yl)oxy)butyl)-1H-1,2,3-triazol-1-yl)ethoxy)ethoxy)-2-phenyl-4H-chromen-4-one], for which the “Selectivity … (P-gp, MRP1, BCRP)” value in data set [1] is “MRP1- and BCRP-dual selectivity”. For the same compound, the half-maximal inhibitory concentration (IC50) at 5 days in “in vitro” was above 100 µM. The half-maximal effective concentration (EC50) at MRP1 [2] turned out to be 0.169 µM; on BCRP [4] it was 0.03 µM. Moreover, on MRP1 [5], the “DOX resistance of 2008/MRP1 Therapeutic index” value is reported as above 877.2. At MRP1 [3], the “Vincristine resistance of 2008/MRP1 Therapeutic index” value is above 591.7.
Take `COCOc1cc(O)c2c(=O)cc(-c3ccc(OCCCc4cn(CCOCCOc5ccc(-c6cc(=O)c7ccccc7o6)cc5)nn4)cc3)oc2c1` [Ac4(5OH)Az1, 5-Hydroxy-7-(methoxymethoxy)-2-(4-(3-(1-(2-(2-(4-(4-oxo-4H-chromen-2-yl)phenoxy)ethoxy)ethyl)-1H-1,2,3-triazol-4-yl)propoxy)phenyl)-4H-chromen-4-one]: the “Selectivity … (P-gp, MRP1, BCRP)” value in data set [1] is “MRP1- and BCRP-dual selectivity”. In addition, the IC50 at 5 days in the data set “in vitro” was above 100 µM. Further, the EC50 at MRP1 [6] was determined as 0.11 ± 0.015 µM. The “DOX resistance of 2008/MRP1 Therapeutic index” value at MRP1 [5] is reported as above 909.1. In addition, the “Topotecan resistance of MCF7-MX100 Therapeutic index” value at BCRP [7] is recorded as above 1960.8.
Regarding `Cc1ccc2oc(-c3ccc(OCCCCc4cn(CCOCCOc5ccc(-c6cc(=O)c7ccccc7o6)cc5)nn4)cc3)cc(=O)c2c1` [Ac5Az1, 6-Methyl-2-(4-(4-(1-(2-(2-(4-(4-oxo-4H-chromen-2-yl)phenoxy)ethoxy)ethyl)-1H-1,2,3-triazol-4-yl)butoxy)phenyl)-4H-chromen-4-one], the IC50 at 5 days in “in vitro” was above 57 µM. Further, the EC50 on MRP1 [6] came to 0.25 µM.
Taken in the same sequence, the figures for `O=c1cc(-c2ccc(OCCCc3cn(CCOCCOc4ccc(-c5cc(=O)c6ccccc6o5)cc4)nn3)cc2)oc2ccccc12` [Ac1Az1, 2-(4-(3-(1-(2-(2-(4-(4-Oxo-4H-chromen-2-yl)phenoxy)ethoxy)ethyl)-1H-1,2,3-triazol-4-yl)propoxy)phenyl)-4H-chromen-4-one] were 60.2 ± 16.3 µM and 0.128 ± 0.0325 µM.
Regarding `O=c1cc(-c2ccccc2)oc2cc(OCCCCc3cn(CCOCCOCCOc4ccc(-c5cc(=O)c6cc(F)ccc6o5)cc4)nn3)ccc12` [Ac12Az4, 6-Fluoro-2-(4-(2-(2-(2-(4-(4-((4-oxo-2-phenyl-4H-chromen-7-yl)oxy)butyl)-1H-1,2,3-triazol-1-yl)ethoxy)ethoxy)ethoxy)phenyl)-4H-chromen-4-one], the “Selectivity … (P-gp, MRP1, BCRP)” value in data set [1] is “MRP1- and BCRP-dual selectivity”. In “in vitro”, this compound had a concentration for half-maximal inhibition (IC50) at 5 days above 100 µM. Besides, the “DOX resistance of 2008/MRP1 Therapeutic index” value at MRP1 [5] is on record as above 525.5. Besides, the “Vincristine resistance of 2008/MRP1 Therapeutic index” value at MRP1 [3] is listed as above 736.9.
Consider `O=c1cc(-c2ccccc2)oc2cc(OCCN(Cc3ccccc3)Cc3cn(CCOCCOc4ccc(-c5cc(=O)c6cc(F)ccc6o5)cc4)nn3)ccc12` [Ac16Az7, 7-(2-(Benzyl((1-(2-(2-(4-(6-fluoro-4-oxo-4H-chromen-2-yl)phenoxy)ethoxy)ethyl)-1H-1,2,3-triazol-4-yl)methyl)amino)ethoxy)-2-phenyl-4H-chromen-4-one], for which, in “in vitro”, the concentration for half-maximal inhibition (IC50) at 5 days was above 100 µM. In addition, the response at MRP1 [6] was half-maximal at 0.123 ± 0.013 µM (EC50).
For `COC(=O)c1cccc(COc2c(-c3ccc(OCCOCCOCCn4cc(CN(Cc5ccccc5)Cc5cn(CCOCCOCCOc6ccc(-c7oc8ccccc8c(=O)c7OCc7cccc(C(=O)OC)c7)cc6)nn5)nn4)cc3)oc3ccccc3c2=O)c1` [Ac15Az9, Dimethyl 3,3′-(((2,2′-((((((((4,4′-((benzylazanediyl)bis(methylene))bis(1H-1,2,3-triazole-4,1-diyl))bis(ethane-2,1-diyl))bis(oxy))bis(ethane-2,1-diyl))bis(oxy))bis(ethane-2,1-diyl))bis(oxy))bis(4,1-phenylene))bis(4-oxo-4H-chromene-3,2-diyl))bis(oxy))bis(methylene))dibenzoate], the “Selectivity … (P-gp, MRP1, BCRP)” value in data set [1] is reported as “mono-BCRP selectivity”. In the data set “in vitro”, this compound gave a 50% inhibitory concentration (IC50) at 5 days above 100 µM. On BCRP [4], this compound yielded a 50% effective concentration (EC50) of at most 0.01 µM. The “Topotecan resistance of MCF7-MX100 Therapeutic index” value on BCRP [7] is recorded as above 50000.0.

Source of the values: patent US9611256B2, “Alkyne-, azide- and triazole-containing flavonoids as modulators for multidrug resistance in cancers” (The Hong Kong Polytechnic University, priority 2012, dated 2017).
